The values below come from ChEMBL document CHEMBL1145660, “Antimicrobial Neolignans of Sassafras randaiense Roots” (1983).

In brackets after ≈: the same amount, converted by molar mass.

Assay type in all cases: functional
In experiment [1] the test system is Mycolicibacterium smegmatis. The experiment is described as follows: Antimicrobial activity against Mycobacterium smegmatis ATCC 607.
For a further experiment, the system named is Saccharomyces cerevisiae. The experiment is described as follows: Antimicrobial activity against Saccharomyces cerevisiae ATCC 9763.
The subject of experiment [2] is Trichophyton mentagrophytes. Nature of the experiment: Antimicrobial activity against Trichophyton mentagrophytes ATCC 9972.
The next experiment relates to Staphylococcus aureus. The experiment is described as follows: Antimicrobial activity against Staphylococcus aureus ATCC 6538.

Take `C=CCc1ccc(Oc2cc(CC=C)ccc2O)cc1` [ISOMAGNOLOL]: the MIC turned out to be 1.56 µg/mL (≈ 5.86 µM) in experiment [1], 25 µg/mL (≈ 93.9 µM) in the experiment on Saccharomyces cerevisiae, 1.56 µg/mL (≈ 5.86 µM) in experiment [2] and 3.12 µg/mL (≈ 11.7 µM) in the experiment with Staphylococcus aureus.
